Reference: patent US10669272B2, “Substituted naphthyridinone compounds useful as T cell activators” (BRISTOL-MYERS SQUIBB COMPANY, priority 2018, dated 2020)
Read-outs that look alike come from different tables or passages of the source.

Experiments:
human DGKα = target: T1, human DGKα (Homo sapiens, UniProt P23743); assay: DGKα LIPGLO assay (extruded liposome substrate), in vitro DGK inhibition; format: biochemical; details: read-out: DGKa LIPGLO IC50
T1 construct: TVMV protease cleavage site (C); Hexa-His (C); made in house; host or cells: Sf9 insect cells (baculovirus, Bac-to-Bac)
T1 sequence (P23743 with tags, fused parts or gaps): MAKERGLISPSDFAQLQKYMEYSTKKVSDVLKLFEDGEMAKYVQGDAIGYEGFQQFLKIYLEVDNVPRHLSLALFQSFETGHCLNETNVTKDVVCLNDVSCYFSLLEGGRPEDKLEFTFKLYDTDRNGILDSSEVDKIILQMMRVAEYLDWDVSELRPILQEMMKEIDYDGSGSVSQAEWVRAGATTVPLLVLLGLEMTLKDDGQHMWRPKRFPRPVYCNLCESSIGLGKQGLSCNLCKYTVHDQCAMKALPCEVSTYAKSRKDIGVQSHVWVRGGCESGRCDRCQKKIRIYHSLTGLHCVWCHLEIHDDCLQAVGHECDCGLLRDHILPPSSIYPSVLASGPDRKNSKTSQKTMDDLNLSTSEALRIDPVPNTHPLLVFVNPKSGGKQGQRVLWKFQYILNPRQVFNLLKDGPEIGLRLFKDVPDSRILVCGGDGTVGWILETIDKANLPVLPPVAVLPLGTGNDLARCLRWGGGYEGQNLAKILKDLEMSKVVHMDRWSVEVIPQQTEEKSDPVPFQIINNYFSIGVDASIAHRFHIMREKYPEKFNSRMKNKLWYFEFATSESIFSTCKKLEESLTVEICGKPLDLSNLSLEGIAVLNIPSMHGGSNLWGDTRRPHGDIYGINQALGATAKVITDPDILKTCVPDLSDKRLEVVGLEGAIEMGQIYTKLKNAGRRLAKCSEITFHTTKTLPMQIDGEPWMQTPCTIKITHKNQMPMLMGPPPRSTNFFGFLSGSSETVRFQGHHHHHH

Human venous whole blood = assay: Human whole blood IFN-γ assay; format: cell-based; details: human whole blood, read-out: INFg Whole Blood Normalized Agonist EC50;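 also: blood from healthy donors exposed to compound for 1 h before stimulation with anti-CD3 and anti-CD28 at 1 µg/mL each, IFN-γ quantified in supernatant by AlphaLISA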
human DGKζ = target: T2, human DGKζ (Homo sapiens, UniProt Q13574); assay: DGKζ LIPGLO assay (extruded liposome substrate), in vitro DGK inhibition; format: biochemical; details: read-out: DGKz LIPGLO IC50
T2 construct: TVMV protease cleavage site (C); Hexa-His (C); made in house; host or cells: Sf9 insect cells (baculovirus, Bac-to-Bac)
T2 sequence (Q13574 with tags, fused parts or gaps isoform Q13574-4): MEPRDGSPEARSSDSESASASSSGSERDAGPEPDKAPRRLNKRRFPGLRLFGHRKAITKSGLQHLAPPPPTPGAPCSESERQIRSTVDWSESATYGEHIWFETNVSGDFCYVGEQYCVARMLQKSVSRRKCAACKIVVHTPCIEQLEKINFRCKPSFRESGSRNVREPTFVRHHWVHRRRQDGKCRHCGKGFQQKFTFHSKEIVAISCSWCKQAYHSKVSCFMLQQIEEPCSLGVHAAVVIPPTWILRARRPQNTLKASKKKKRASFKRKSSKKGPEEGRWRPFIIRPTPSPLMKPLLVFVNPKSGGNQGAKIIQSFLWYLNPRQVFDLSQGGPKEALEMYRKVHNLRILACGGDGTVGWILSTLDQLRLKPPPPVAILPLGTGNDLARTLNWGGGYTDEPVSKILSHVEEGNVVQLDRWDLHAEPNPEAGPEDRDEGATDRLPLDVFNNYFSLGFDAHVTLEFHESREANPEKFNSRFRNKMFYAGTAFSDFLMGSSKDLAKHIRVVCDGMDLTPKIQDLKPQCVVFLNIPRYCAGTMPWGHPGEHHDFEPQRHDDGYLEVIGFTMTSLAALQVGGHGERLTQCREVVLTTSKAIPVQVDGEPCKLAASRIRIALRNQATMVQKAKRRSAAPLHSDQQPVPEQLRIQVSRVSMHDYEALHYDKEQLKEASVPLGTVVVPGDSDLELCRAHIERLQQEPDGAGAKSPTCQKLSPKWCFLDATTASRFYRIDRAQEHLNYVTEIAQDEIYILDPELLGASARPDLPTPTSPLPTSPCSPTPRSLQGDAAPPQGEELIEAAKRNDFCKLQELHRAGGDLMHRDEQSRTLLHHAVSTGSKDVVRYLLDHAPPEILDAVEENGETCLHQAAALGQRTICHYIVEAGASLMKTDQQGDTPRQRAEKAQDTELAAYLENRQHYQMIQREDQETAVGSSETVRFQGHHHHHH

[1] = Homo sapiens, 24 h, anti-CD3 plus anti-CD28, 24 hours, 3 μM reference compound = 100% activation
[2] = anti-CD3 plus anti-CD28, 24 hours, 3 μM reference compound = 100% activation
[3] = Homo sapiens, 24 h, normalized to 3 μM reference compound with anti-CD3 plus anti-CD28 as 100% activation
[4] = normalized to 3 μM reference compound with anti-CD3 plus anti-CD28 as 100% activation

SMILES | IC50 (human DGKα; DGKα liposome (LIPGLO) assay) [µM] | IC50 (human DGKζ; DGKζ liposome (LIPGLO) assay) [µM] | IC50 (human DGKα; liposome (LIPGLO) assay) [µM] | IC50 (human DGKζ; liposome (LIPGLO) assay) [µM] | EC50 (Human venous whole blood; [1]) [µM] | EC50 (Human venous whole blood; [2]) [µM] | EC50 (Human venous whole blood; [3]) [µM] | EC50 (Human venous whole blood; [4]) [µM]
C[C@@H]1CN(c2c(C#N)c(=O)n(C)c3ccc(C#N)nc23)CCN1Cc1ccc(Cl)cc1 [Example 1011] | 1.2 | 8.3 |  |  | 20 |  |  | 
C[C@@H]1CN(c2c(C#N)c(=O)n(C)c3ccc(C#N)nc23)CCN1Cc1ccc(C(C)(C)C)cc1 [Example 1013] | 7.3 | 47 |  |  | 1.4 |  |  | 
C[C@@H]1CN(c2c(C#N)c(=O)n(C)c3ccc(C#N)nc23)CCN1Cc1ccccc1C(F)(F)F [Example 1014] | 1.3 | 1.9 |  |  | 20 |  |  | 
C[C@@H]1CN(c2c(C#N)c(=O)n(C)c3ccc(C#N)nc23)CCN1Cc1ccc(Cl)c(F)c1 [Example 1015] | 1.4 | 8.2 |  |  | 2.7 |  |  | 
C[C@@H]1CN(c2c(C#N)c(=O)n(C)c3ccc(C#N)nc23)CCN1C(c1ccc(F)cc1)c1cnn(C)c1 (stereo partly drawn) [Example 1016] | 3.3 | 7.5 |  |  | 3.3 |  |  | 
C[C@@H]1CN(c2c(C#N)c(=O)n(C)c3ccc(C#N)nc23)CCN1C(c1ccc(F)cc1)c1cnn(C)c1 (stereo partly drawn) [Example 1017] | 7.2 | 8.4 |  |  |  | 3.3 |  | 
C[C@@H]1CN(c2c(C#N)c(=O)n(C)c3ccc(C#N)nc23)CCN1C(c1ccc(F)cc1)c1cocn1 (stereo partly drawn) [Example 1022] | 2.9 | 12 |  |  | 2.5 |  |  | 
C[C@@H]1CN(c2c(C#N)c(=O)n(C)c3ccc(C#N)nc23)CCN1C(c1ccc(F)cc1)c1cocn1 (stereo partly drawn) [Example 1023] | 3.6 | 13 |  |  |  | 3.5 |  | 
C[C@@H]1CN(c2c(C#N)c(=O)n(C)c3ccc(C#N)nc23)CCN1C(c1ccc(F)cc1)c1cnsc1 (stereo partly drawn) [Example 1028] |  |  | 1.5 | 7 |  |  | 2.8 | 
CC[C@H]1CN(C(c2ccc(Cl)cc2)c2ccc(Cl)cc2)[C@H](CC)CN1c1cc(=O)n(C)c2ccc(C#N)nc12 [Example 1032] |  |  | 0.31 | 0.28 |  |  | 0.28 | 
CC[C@H]1CN(C(c2ccc(F)cc2)c2ccc(C#N)cc2)[C@H](CC)CN1c1cc(=O)n(C)c2ccc(C#N)nc12 (stereo partly drawn) [Example 1035] |  |  | 0.37 | 1.1 |  |  | 0.29 | 
CC[C@H]1CN(C(c2ccc(F)cc2)c2ccc(C#N)cc2)[C@H](CC)CN1c1cc(=O)n(C)c2ccc(C#N)nc12 (stereo partly drawn) [Example 1036] |  |  | 0.3 | 0.52 |  |  |  | 0.2
CC[C@H]1CN(C(c2ccc(F)cc2)c2ccc(C(F)(F)F)cn2)[C@H](CC)CN1c1cc(=O)n(C)c2ccc(C#N)nc12 (stereo partly drawn) [Example 1039] |  |  | 0.11 | 0.087 |  |  | 0.091 | 
CC[C@H]1CN(C(c2ccc(F)cc2)c2ccc(C(F)(F)F)cn2)[C@H](CC)CN1c1cc(=O)n(C)c2ccc(C#N)nc12 (stereo partly drawn) [Example 1040] |  |  | 0.042 | 0.059 |  |  |  | 0.057
CC[C@H]1CN(C(c2cccc(F)c2)c2ccc(OC)cn2)[C@H](CC)CN1c1cc(=O)n(C)c2ccc(C#N)nc12 (stereo partly drawn) [Example 1048] |  |  | 0.083 | 0.15 |  |  | 0.19 | 
CC[C@H]1CN(C(c2ccc(F)cc2)c2nc(C3CC3)cs2)[C@H](CC)CN1c1cc(=O)n(C)c2ccc(C#N)nc12 (stereo partly drawn) [Example 1067] |  |  | 0.079 | 0.047 |  |  | 0.011 | 
CC[C@@H]1CN(c2cc(=O)n(C)c3ccc(C#N)nc23)[C@@H](C)CN1C(c1ccc(F)cc1)c1ccc(F)cc1 [Example 1097] |  |  | 0.4 | 0.21 |  |  | 0.66 | 
CC[C@@H]1CN(c2cc(=O)n(C)c3ccc(C#N)nc23)[C@@H](C)CN1C(c1ccc(C)cc1)c1ccc(C)cc1 [Example 1098] |  |  | 0.57 | 0.3 |  |  | 0.15 | 
CC[C@@H]1CN(c2cc(=O)n(C)c3ccc(C#N)nc23)[C@@H](C)CN1C(c1ccc(F)cc1)c1cccc(C(F)(F)F)n1 (stereo partly drawn) [Example 1112] |  |  | 1.2 | 0.15 |  |  |  | 0.17
CC[C@@H]1CN(c2cc(=O)n(C)c3ccc(C#N)nc23)[C@@H](C)CN1C(c1ccc(F)cc1)c1cccc(C(F)(F)F)n1 (stereo partly drawn) [Example 1113] |  |  | 0.62 | 0.31 |  |  |  | 1
CC[C@@H]1CN(c2cc(=O)n(C)c3ccc(C#N)nc23)[C@@H](C)CN1C(c1ccc(F)cc1)c1nc(C2CC2)no1 (stereo partly drawn) [Example 1117] |  |  | 0.015 | 0.017 |  |  | 0.15 | 
CC[C@H]1CN(C(c2ccc(C)cc2)c2ccc(C)cc2)[C@H](C)CN1c1cc(=O)n(C)c2ccc(C#N)nc12 [Example 1119] |  |  | 1 | 0.43 |  |  | 17 | 
CC[C@H]1CN(C(c2ccc(F)cc2)c2ccc(C#N)cc2)[C@H](C)CN1c1cc(=O)n(C)c2ccc(C#N)nc12 (stereo partly drawn) [Example 1123] |  |  | 1.2 | 4.7 |  |  | 2.6 | 
CC[C@H]1CN(C(c2ccc(F)cc2)c2ccc(C#N)cc2)[C@H](C)CN1c1cc(=O)n(C)c2ccc(C#N)nc12 (stereo partly drawn) [Example 1124] |  |  | 0.88 | 3.1 |  |  |  | 1.4
Cc1ccc(C(c2cccc(F)c2)N2C[C@H](C)N(c3cc(=O)n(C)c4ccc(C#N)nc34)C[C@H]2CO)nc1 (stereo partly drawn) [Example 1154] |  |  | 8.1 | 50 |  |  | 2.4 | 
CC(=O)NC[C@@H]1CN(c2cc(=O)n(C)c3ccc(C#N)nc23)[C@@H](C)CN1C(c1ccc(F)cc1)c1ccc(F)cc1 [Example 1165, N-(((2R,5S)-1-(bis(4-fluorophenyl)methyl)-4-(6-cyano-1-methyl-2-oxo-1,2-dihydro-1,5-naphthyridin-4-yl)-5-methylpiperazin-2-yl)methyl)acetamide] |  |  | 3.4 | 1.1 |  |  | 0.24 | 

Further lines, with some results ahead:

IC50 (human DGKα; DGKα liposome (LIPGLO) assay) [µM] | IC50 (human DGKζ; DGKζ liposome (LIPGLO) assay) [µM] | IC50 (human DGKα; liposome (LIPGLO) assay) [µM] | IC50 (human DGKζ; liposome (LIPGLO) assay) [µM] | SMILES | EC50 (Human venous whole blood; [1]) [µM] | EC50 (Human venous whole blood; [2]) [µM] | EC50 (Human venous whole blood; [3]) [µM] | EC50 (Human venous whole blood; [4]) [µM]
 |  | 0.058 | 0.076 | CC[C@@H]1CN(c2cc(=O)n(C)c3ccc(C#N)nc23)[C@@H](CC)CN1Cc1ccc(F)cc1F [Example 1062] |  |  | 0.11 | 
 |  | 1.1 | 1.8 | CC[C@@H]1CN(c2cc(=O)n(C)c3ccc(C#N)nc23)[C@@H](CC)CN1Cc1ccc2c(c1)OC(F)(F)O2 [Example 1063] |  |  | 0.43 | 
 |  | 0.11 | 1 | CC[C@@H]1CN(c2cc(=O)n(C)c3ccc(C#N)nc23)[C@@H](C)CN1Cc1ccccc1 [Example 1076] |  |  | 1.7 | 
 |  | 0.46 | 0.32 | CC[C@@H]1CN(c2cc(=O)n(C)c3ccc(C#N)nc23)[C@@H](C)CN1Cc1ccc(F)cc1F [Example 1077] |  |  | 0.14 | 
 |  | 2.7 | 0.11 | CC[C@@H]1CN(c2cc(=O)n(C)c3ccc(C#N)nc23)[C@@H](C)CN1Cc1ccc(F)cc1Cl [Example 1078] |  |  | 0.97 | 
 |  | 0.028 | 0.089 | CC[C@@H]1CN(c2cc(=O)n(C)c3ccc(C#N)nc23)[C@@H](C)CN1Cc1ccc(F)cc1 [Example 1079] |  |  | 0.65 | 
 |  | 0.64 | 0.69 | CC[C@@H]1CN(c2cc(=O)n(C)c3ccc(C#N)nc23)[C@@H](C)CN1Cc1c(F)cc(F)cc1F [Example 1080] |  |  | 0.24 | 
 |  | 1.5 | 0.68 | CC[C@@H]1CN(c2cc(=O)n(C)c3ccc(C#N)nc23)[C@@H](C)CN1Cc1ccc(OC(F)(F)F)cc1OC [Example 1081] |  |  | 0.25 | 
 |  | 5.2 | 1.5 | CC[C@@H]1CN(c2cc(=O)n(C)c3ccc(C#N)nc23)[C@@H](C)CN1Cc1ccc2c(c1)OC(F)(F)O2 [Example 1082] |  |  | 0.58 | 
 |  | 0.35 | 0.24 | CC[C@@H]1CN(c2cc(=O)n(C)c3ccc(C#N)nc23)[C@@H](C)CN1C(c1ccc(F)cc1)c1ccc(Cl)cc1 (stereo partly drawn) [Example 1101] |  |  |  | 0.23
 |  | 0.2 | 0.078 | CC[C@@H]1CN(c2cc(=O)n(C)c3ccc(C#N)nc23)[C@@H](C)CN1C(c1ccc(Cl)cc1)c1ccc(F)cn1 (stereo partly drawn) [Example 1111] |  |  |  | 0.31
 |  | 0.4 | 0.58 | CC[C@H]1CN(C(c2ccc(F)cc2)c2ccc(F)cc2)[C@H](C)CN1c1cc(=O)n(C)c2ccc(C#N)nc12 [Example 1118] |  |  | 0.36 | 
 |  | 0.68 | 2.4 | CC[C@H]1CN(C(c2ccc(F)cc2)c2ccc(Cl)cc2)[C@H](C)CN1c1cc(=O)n(C)c2ccc(C#N)nc12 (stereo partly drawn) [Example 1127] |  |  | 0.52 | 
 |  | 0.73 | 0.94 | CC[C@H]1CN(C(c2ccc(F)cc2)c2ccc(Cl)cc2)[C@H](C)CN1c1cc(=O)n(C)c2ccc(C#N)nc12 (stereo partly drawn) [Example 1128] |  |  |  | 0.55
 |  | 0.038 | 0.16 | CC[C@H]1CN(Cc2c(F)cc(F)cc2F)[C@H](C)CN1c1cc(=O)n(C)c2ccc(C#N)nc12 [Example 1148] |  |  | 1.2 | 
 |  | 0.65 | 3.5 | CC[C@H]1CN(Cc2cc(F)c(F)c(F)c2)[C@H](C)CN1c1cc(=O)n(C)c2ccc(C#N)nc12 [Example 1149] |  |  | 0.51 | 
 |  | 18 | 0.33 | COC[C@@H]1CN(c2cc(=O)n(C)c3ccc(C#N)nc23)[C@@H](C)CN1Cc1cc(F)c(F)c(F)c1 [Example 1161] |  |  | 15 | 
